According to US7271239B2, “D-isomers of antimicrobial peptide” (The Research Foundation of State University of New York, priority 2004, dated 2007):
Converted amounts (≈) assume the structure as drawn. “And” between values parts separate entries of the source, which are not always exact repeats. Identical values can stand only once. Like-named read-outs stand apart in the source and are kept apart here. Where a SMILES comes first, the peptide text is derived from it. Where no end group is shown, it is not given here. [ ]: non-standard residue; d: D form.

Legend:
S. gordonii Challis = experiment: microbe, parasite or virus in culture; format: cell-based, Streptococcus gordonii; settings: for MBC / MIC: Streptococcus gordonii
From the text: (§1) The bacteria used in this study included Streptococcus mutans ATCC10449, Streptococcus mutans AU 159, Streptococcus mutans GS-5, Streptococcus mutans GS-5 mutant (^gtf BCD), Streptococcus gordonii Challis, Porphyromonas gingivalis W50, Porphyromonas gingivalis 381, A. actinomycetemcomitans NCTC 9710, Pseudomonas aeruginosa ATCC 17648, and Escherichia coli HB101. One quarter strength (25%) of brain heart infusion broth (BHI, DIFCO Laboratories, Detroit, Mich.) was used for the growth of S. mutans, S. gordonii, A. actinomycetemcomitans, Ps. aeruginosa, and E. coli. For growth of P. gingivalis, tryptic soy broth-yeast extract medium (TSBY, DIFCO Laboratories, Detroit, Mich.) supplemented with cysteine hydrochloride (0.05%), menadione (0.02 μg/ml), hemin (5 μg/ml), and potassium nitrate (0.02%) was used. All bacteria were cultured at 37° C.; Ps. aeruginosa and E. coli were grown aerobically, and the other bacteria, anaerobically. To prepare bacterial cell suspension for antibacterial activity assays, each overnight culture was harvested by centrifuge (3783 g, 10 min), washed once with 10 mM sodium phosphate-buffered saline (PBS, pH 7.2), resuspended in PBS and adjusted to a concentration of 1×10^6 cells/mL.
(§2) MICs of the peptides were determined by broth microdilution method as previously described (5). Briefly, two-fold serial dilutions of each peptide were prepared with 25% BHI medium at a volume of 200 μl per well in 96-well flat-bottom microtiter plates (Costar, Cambridge, Mass.). The final concentration of the peptides ranged from 0.78 to 100 μM, and chlorhexidine (CHX), used as a positive control, from 20 to 0.16 μM (10 to 0.078 μg/mL). The microtiter plate was inoculated with bacterial cell suspension with final concentration of 5×10^6 CFU/mL for P. gingivalis and 5×10^5 CFU/mL for the other bacterial species. After incubation at 37° C. for 48 h, the absorbance was measured at 595 nm by using a microplate reader (Model 3550, Bio-Rad, Japan) to assess the cell growth. […] The MIC value represents the median of at least three independent experiments. The minimal bactericidal concentration (MBC) was determined as follows. Aliquot (100 μl) of cell suspension was taken from two wells above MIC, centrifuged, and washed three times with PBS. Then each cell suspension was plated on TSBY agar plate, and bacterial cells were enumerated after incubation at 37° C. for 48 h. The MBC was defined as the lowest concentration of the peptide at which more than 99.9% of cells were killed compared to non-treated control.

[1] = system: S. mutans GS-5 1-day biofilm; format: cell-based, Streptococcus mutans
Description: FIG. 12. Effect of peptides on 1-day biofilm of S. mutans. One-day mature biofilm was prepared as described above. BHI medium supplemented with 1% sucrose (BHIS) with peptides, prepared in another microtiter plate, was then transferred to the biofilm plate. After further incubation at 37° C. for 24 h, the biofilm was fixed, stained, and quantified as describe above. Data represents mean and SD of two independent tests performed in duplicated. Empty bar: growth, solid bar: biofilm.
To examine the effects of the peptides on 1-day mature biofilm, S. mutans GS-5 was inoculated into the wells of another polystyrene microtiter plate containing BHIS at a volume of 200 μl per well. After incubation at 37° C. for 24 h, the culture supernatants from each well were decanted and planktonic cells were removed by washing with PBS. BHIS containing 0.78 to 100 μM peptides, prepared in another microtiter plate, was then transferred to the 1-day biofilm plate, and further incubated at 37° C. for one day. The biofilm was fixed, stained, and quantified as describe above.

[2] = Stability of peptides in saliva (SDS-PAGE); format: in vitro ADME, human
Description: (§3) FIGS. 3A and 3B. Stability of antimicrobial peptides in (3A) Trypsin and (3B) unclarified saliva. Each peptide (3 μg in 5 μl of 0.5 M Tris-HCl buffer pH 7.5) was incubated with: 0.2 μg/ml trypsin containing PIC or no PIC for 0.5 h; or saliva (10 μl) for 1 h. The control of each compound was also incubated with Tris-HCl buffer in parallel. The samples were analyzed by 13% SDS-PAGE. The gel was stained with Coomassie brilliant blue and further analyzed for the peptide degradation by GS-700 Imaging Densitometer. The degradation was estimated by the equation: 1−(density of test band/density of control band)×100%. Ctrol: each peptide alone; T: trypsin plus peptide; T+PIC: trypsin containing PIC plus peptide; S: saliva plus peptide; S+PIC: saliva containing PIC plus peptide.
(§4) Stability of peptides in saliva and susceptibility of septides to trypsin. Three microliters of each peptide (MUC7 12-mer-D, MUC7 12-mer-L, Hsn5 12-mer, or Magainin-II, at 1 μg/μl in 0.2 M Tris-HCl buffer pH 7.5) were incubated with 11 μl of 0.2 μg/ml trypsin or saliva. This gave a final concentration of 0.16 μg/ml for trypsin, and 0.2 μg/μl for peptides (or 127, 127, 128, and 81 μM, for MUC7 12-mer-D, MUC7 12-mer-L, Hsn5 12-mer, or Magainin II, respectively). The reactions, without PIC (water instead or PIC) or with 1×PIC [50% (v/v)] were incubated 0.5 h with trypsin, and 1 hr with saliva (clarified or unclarified) at 37° C. The control of each compound was also incubated with Tris-HCl buffer in parallel. The samples were analyzed by 13% SDS-PAGE. Gels was stained with Coomassie brilliant blue R-250 and further analyzed for the peptide degradation by GS-700 Imaging Densitometer (Bio Red). The degradation was estimated by the equation: 1−(density of test band/density of control band)×100%.

P. gingivalis = experiment: microbe, parasite or virus in culture; format: cell-based, Porphyromonas gingivalis; settings: for MBC / MIC: Porphyromonas gingivalis
From the text: as §1, §2

S. mutans = experiment: microbe, parasite or virus in culture
From the text: as §1, §2

trypsin = experiment: Susceptibility of peptides to trypsin (SDS-PAGE); format: in vitro ADME
Description: as §3, §4

[3] = system: Ps. aeruginosa ATCC 17648; experiment: microbe, parasite or virus in culture; format: cell-based, Pseudomonas aeruginosa; settings: for MBC / MIC: Pseudomonas aeruginosa, ATCC17648
From the text: as §1, §2

[4] = median of four strains (GS-5, GS-5 gtfBCD, AU 159, ATCC10449), 25% BHI, 48 h
[5] = lowest concentration with 50% or more eradication of 1-day biofilm
[6] = median of two strains (W 50, 381)

Row | Compound | MBC (μM) (S. gordonii Challis) [µM] | MIC (μM) (S. gordonii Challis) [µM] | MBEC50 (μM) ([1]; GS-5 1-day biofilm, 24 h) [µM] | degradation by saliva [2] | MIC (μM) (P. gingivalis) [µM] | MBC (μM) (S. mutans; median of four strains) [µM] | MIC (S. mutans; [4]) [µM] | degradation by trypsin (trypsin) | MBC (μM) ([3]; ATCC 17648) [µM] | MBC (μg/ml) ([3]; ATCC 17648) [µg/mL] | MIC (μM) ([3]; ATCC 17648) [µM] | MIC (μg/ml) (P. gingivalis) [µg/mL] | MIC (μg/ml) ([3]; ATCC 17648) [µg/mL] | MBC (μg/ml) (S. gordonii Challis) [µg/mL] | MIC (μg/ml) (S. gordonii Challis) [µg/mL] | MBEC50 (μg/ml) [1] [µg/mL] | MBEC50 (μM) [1, 5] [µM] | further results
1 | CC(C)C[C@@H](NC(=O)[C@@H](CS)NC(=O)[C@@H](CCCCN)NC(=O)[C@@H](Cc1ccc(O)cc1)NC(=O)[C@@H](CO)NC(=O)[C@@H](CCCCN)NC(=O)[C@H](N)CCCNC(=N)N)C(=O)N[C@H](Cc1c[nH]cn1)C(=O)N[C@H](CCCCN)C(=O)N[C@H](CCCNC(=N)N)C(=O)N[C@H](CS)C(=O)N[C@H](CCCNC(=N)N)C(=O)O [MUC7 12-mer-D] (H-[dR][dK][dS][dY][dK][dC][dL][dH][dK][dR][dC][dR]-OH; N-terminus and C-terminus assumed) | 100.0 (≈ 158 µg/mL) | 50.0 (≈ 78.9 µg/mL) | 25 | resistant to the degradation | 50.0 (≈ 78.9 µg/mL) | 12.5 (≈ 19.7 µg/mL) | 12.5 | resistant to the degradation | >100 | >158 | 100.0 (≈ 158 µg/mL) |  |  |  |  |  |  | MBC (μM) (P. gingivalis): 100.0 µM (≈ 158 µg/mL); MBC (μg/ml) (P. gingivalis): 79.0 µg/mL (≈ 50.1 µM)
2 | CC(C)C[C@H](NC(=O)[C@H](CS)NC(=O)[C@H](CCCCN)NC(=O)[C@H](Cc1ccc(O)cc1)NC(=O)[C@H](CO)NC(=O)[C@H](CCCCN)NC(=O)[C@@H](N)CCCNC(=N)N)C(=O)N[C@@H](Cc1c[nH]cn1)C(=O)N[C@@H](CCCCN)C(=O)N[C@@H](CCCNC(=N)N)C(=O)N[C@@H](CS)C(=O)N[C@@H](CCCNC(=N)N)C(=O)O [MUC7 12-mer-L] (H-RKSYKCLHKRCR-OH; N-terminus and C-terminus assumed) | 100.0 (≈ 158 µg/mL) | 50.0 (≈ 78.9 µg/mL) | 50 | degraded | >100 | 12.5 (≈ 19.7 µg/mL) | 12.5 | degraded | >100 | >158 | >100 | >158 | >158 |  |  |  |  | 
3 | GIGKFLHSAKKFGKAFVGEIMNS [Magainin-II] | >50 | 50.0 |  |  |  | 50.0 | 25 |  |  |  |  |  |  | >123 | 123.5 | >125 | >50 | eradication of 1-day developed biofilm ([1]; at or more than MBEC50): eradication was not observed; degradation by saliva ([2]; unclarified saliva, 1 h, 37° C., SDS-PAGE): degraded; MIC (μM) (P. gingivalis; [6]): >100 µM; MIC (μg/ml) (P. gingivalis; [6]): >246.9 µg/mL; MIC (S. mutans; median of four strains): 61.7 mg/L; degradation by trypsin (trypsin; 0.5 h, 37° C., SDS-PAGE): degraded; MBC (μM) [3]: 100.0 µM; MBC (μg/ml) [3]: 246.9 µg/mL; MIC (μM) [3]: >100 µM; MIC (μg/ml) [3]: >246.9 µg/mL
4 | AKRHHGYKRKFH [Hsn5 12-mer] | >100 | >100 | >50 | degraded | >100 | 50.0 | 25 | degraded | >100 | >158 | >100 | >158 | >158 | >158 | >158 |  |  | MBEC50 (μg/ml) ([1]; GS-5 1-day biofilm, 24 h): >78 µg/mL
5 | [H]/N=C(\N/C(=N/[H])NCCCCCCNC(=N)NC(=N)Nc1ccc(Cl)cc1)Nc1ccc(Cl)cc1 [Chlorhexidine, Chlorhexidine digluconate] |  |  |  |  |  |  |  |  |  |  |  |  |  |  |  | >10 | >20 | MBC (S. gordonii Challis; read-out: MBC): 4 µM; MBC (S. gordonii Challis; read-out: MBC (μg/ml)): 2 µg/mL; MIC (S. gordonii Challis; read-out: MIC): 2.5 µM; MIC (S. gordonii Challis; read-out: MIC (μg/ml)): 1.2 µg/mL; MBC (P. gingivalis; median of two strains (W 50, 381), read-out: MBC): 2.5 µM; MBC (P. gingivalis; median of two strains (W 50, 381), read-out: MBC (μg/ml)): 1.3 µg/mL; MIC (P. gingivalis; median of two strains (W 50, 381), read-out: MIC): 2.5 µM; MIC (P. gingivalis; median of two strains (W 50, 381), read-out: MIC (μg/ml)): 1.2 µg/mL; MBC (S. mutans; Streptococcus mutans): 2.5 µM and 1.2 µg/mL; MIC (S. mutans; Streptococcus mutans): 1.2 mg/L; MIC (S. mutans; Streptococcus mutans, ATCC10449, 48 h): 2.5 µM; MBC ([3]; read-out: MBC): 10 µM; MBC ([3]; read-out: MBC (μg/ml)): 5.1 µg/mL; MIC ([3]; read-out: MIC): 10 µM; MIC ([3]; read-out: MIC (μg/ml)): 5.1 µg/mL
